Measurements reported in patent publication US7723091B2 (priority 1999, dated 2010).
Values joined by “and” are separate entries in the source; they are usually repeats but may differ in a detail not shown here. Equal values may be shown once. Read-outs that look alike come from different tables or passages of the source. Marks after values point to notes of the source that are not given here.

Experiments:
[1] = tested on: E. acervulina, E. maxima, and C. perfringens; format: in vivo, broiler chickens; details: Trial III; infected; no PI-PLC (T4 mannanase 100 MU/ton; T9 salinomycin 60 g/ton+BMD 50 g/ton)
[2] = tested on: E. acervulina, E. maxima and Clostridium perfringens; format: in vivo, broiler chickens; details: infected
[3] = tested on: Eimeria acervulina sporozoites; experiment: In vitro invasion of BHK cells by Eimeria acervulina sporozoites; format: cell-based; details: B. cereus PI-PLC 0.0403 U/mL, recombinant 0.261 U/mL
Procedure: (§1) Eineria acervulina sporozoites or Eimeria tenella sporozoites and cultured baby hamster kidney (BHK) cells were prepared by published methods. See Augustine, Avian and Poultry Biology Reviews 1:113-122, 2000. For cell pretreatment, cell cultures were overlaid with dilutions of enzymes as described in Table 11, and examined for morphological changes from 5 to 45 min post overlay. After 45 minutes, the monolayer cultures were washed twice, then inoculated with untreated E. acervulina or E. tenella sporozoites. For application during infection, sporozoites were suspended in the appropriate dilution of the enzyme and inoculated immediately into the cell cultures. After 45 minutes incubation, cultures were fixed, stained, and the invasion was quantified.
(§2) Observations were made looking for changes in gross morphology of sporozoites or cells due to enzyme treatment. At the enzyme levels used in these experiments, no morphological change was noted. The sporozoite invasion of the cultured cells was measured after the two methods of enzyme treatment, as well as without enzyme treatment, by histological staining and microscopy procedures. See Augustine, supra.

[4] = tested on: Eimeria tenella sporozoites; experiment: In vitro invasion of BHK cells by Eimeria tenella sporozoites; format: cell-based; details: B. cereus PI-PLC 0.0403 U/mL, recombinant 0.261 U/mL
Procedure: as §1, §2

E. coli MG1655 = experiment: Cylinder plate assay for antibiotic activity; format: cell-based; details: E. coli MG1655 testing strain
Procedure: Fermentation with Bacillus cereus (ATCC 7004) was conducted according to the method described in EXAMPLE 2 except that the initial volume was increased to 20 liters. A test for the presence of antibiotic was conducted with E. coli MG1655 as the testing strain with final fermentation broth or partially purified PI-PLC prepared according to the method described in EXAMPLES 3-5. The test was conducted as a.cylinder plate assay. See Brantner, Pharmazie 52(1):34-40, 1997.

[5] = tested on: Eimeria acervulina and Clostridium perfringens; format: in vivo, broiler chickens; details: Trial I
[6] = tested on: E. acervulina and Clostridium perfringens; format: in vivo, broiler chickens
[7] = Trial IV Test 13, Man. 5x at 506 MU/ton
[8] = Trial IV, PI-PLC 30 U/lb, Man. 121 MU/ton, BMD 50 g/ton, salinomycin 60 g/ton
[9] = Cell Pretreatment with Enzyme Followed by Wash, Test 1, mannanase 5100 U/mL
[10] = Cell Pretreatment with Enzyme Followed by Wash, Test 2, mannanase 5100 U/mL
[11] = mean of 4 replicates, infected, PI-PLC 0.34 g/ton pure basis (T3, T4) or Sacox 60 g/ton + BMD-50 50 g/ton (T2) in feed
[12] = single replicate (cage) values, infected, PI-PLC 0.34 g/ton pure basis (T3, T4) or Sacox 60 g/ton + BMD-50 50 g/ton (T2) in feed
[13] = Trial II T4 (Rec), T7 (Wt), infected, 10 U/lb
[14] = Application of Enzyme During Infection, Test 2, listed as PI-PLC from B. cereus
[15] = Cell Pretreatment with Enzyme Followed by Wash, Test 1, mannanase 5100 U/mL, listed as PI-PLC from B. cereus
[16] = Cell Pretreatment with Enzyme Followed by Wash, Test 2, mannanase 5100 U/mL, listed as PI-PLC from B. cereus

## endo-1,4- -D-mannanase [β-mannanase]
[1]
  Feed Consumption Day 0-21: 10.787^abc
  Feed Consumption Day 8-21: 8.435^abc
  Feed Conversion Day 0-21: 1.501^cd
  Feed Conversion Day 8-21: 1.536^c
  Lesion Scores E. acer.: 1.16^ab
  Lesion Scores E. max.: 1.44^ab
  Live Wt. Day 21: 0.652^bc
  Weight AF/G Treatment (weight adjusted feed conversion): 1.465
  Weight Gain Day 0-21: 0.611^bc
  Weight Gain Day 8-21: 0.490^b
[2]; [7]
  Feed Conversion Day 0-21: 1.740
  Feed Conversion Day 8-21: 1.813
  Lesion Score E. acer. Upper: 2.13
  Lesion Score E. max. Middle: 2.00
  Live Weight Day 21: 0.471
  Weight Gain Day 0-21: 0.437
  Weight Gain Day 8-21: 0.339
[2]; [8]
  Feed Conversion Day 0-21: 1.803
  Feed Conversion Day 8-21: 1.849
  Lesion Score E. acer. Upper: 1.94
  Lesion Score E. max. Middle: 1.34
  Live Weight Day 21: 0.483
  Weight Gain Day 0-21: 0.433
  Weight Gain Day 8-21: 0.338
[3]; [9]
  Invasion counts (mean ± standard error of the mean): 16 ± 1^b
[3]; [10]
  Invasion counts (mean ± standard error of the mean): 29 ± 2^ab
[4]; Application of Enzyme During Infection, Test 1, mannanase 5100 U/mL
  Invasion counts (mean ± standard error of the mean): 46 ± 6^ab
[4]; [9]
  Invasion counts (mean ± standard error of the mean): 35 ± 1^b
[4]; [10]
  Invasion counts (mean ± standard error of the mean): 19 ± 5^a

## Bacitracin methylene disalicylate [reference compound]
[2]; [8]
  Feed Conversion Day 0-21: 1.707
  Feed Conversion Day 8-21: 1.770
  Lesion Score E. acer. Upper: 2.25
  Lesion Score E. max. Middle: 1.94
  Live Weight Day 21: 0.490
  Weight Gain Day 0-21: 0.453
  Weight Gain Day 8-21: 0.352

## phosphatidylinositol specific phospholipase C [Wild type PI-PLC]
E. coli MG1655
  clearing zone indicating antibiotic activity: No clearing zone
[5]; by all criteria (Tables 4-5)
  performance compared with the Salinomycin+BMD treatment: worked as well as or better than the Salinomycin+BMD treatment
[5]; [11]
  Average Body Weight at 21 Days, Mean: 378.71 g and 373.14 g
  Average Feed Conversion (0-21 days) Corrected for Weight of Mortality Birds, Mean: 1.425 and 1.419
[5]; [12]
  Average Body Weight at 21 Days: 377.83 g and 366.67 g and 383.83 g and 361.17 g and 378.83 g and 361.33 g and 374.33 g and 403.40 g
  Average Feed Conversion (0-21 days) Corrected for Weight of Mortality Birds: 1.438 and 1.404 and 1.407 and 1.445 and 1.423 and 1.421 and 1.432 and 1.406
[6]; [13]
  8-21 Day Feed Conversion (Corrected): 1.876
  8-21 Day Weight Gain: 298.98
  Average Intestinal Lesion Score: 1.267
[6]; Trial II, same concentration (10 U/lb)
  effectiveness compared with recombinant counterpart: did not work as effectively as its recombinant counterpart
[3]; Application of Enzyme During Infection, Test 1, listed as PI-PLC from B. cereus
  Invasion counts (mean ± standard error of the mean): 33 ± 3^b
[3]; [14]
  Invasion counts (mean ± standard error of the mean): 25 ± 2^ab
[3]; [15]
  Invasion counts (mean ± standard error of the mean): 15 ± 1^b
[3]; [16]
  Invasion counts (mean ± standard error of the mean): 26 ± 1^ab
[4]; Application of Enzyme During Infection, Test 1, mannanase 5100 U/mL, listed as PI-PLC from B. cereus
  Invasion counts (mean ± standard error of the mean): 52 ± 13^ab
[4]; [14]
  Invasion counts (mean ± standard error of the mean): 37 ± 2^ab
[4]; [15]
  Invasion counts (mean ± standard error of the mean): 38 ± 2^b
[4]; [16]
  Invasion counts (mean ± standard error of the mean): 21 ± 2^a

## CC[C@@H](C(=O)[C@@H](C)[C@@H](O)[C@H](C)[C@@H]1O[C@@H]([C@@H](CC)C(=O)O)CC[C@@H]1C)[C@H]1O[C@]2(C=C[C@@H](O)[C@]3(CC[C@@](C)([C@H]4CC[C@](O)(CC)[C@H](C)O4)O3)O2)[C@H](C)C[C@@H]1C [S, Salinomycin, reference compound]
[2]; [8]
  Feed Conversion Day 0-21: 1.709
  Feed Conversion Day 8-21: 1.719
  Lesion Score E. acer. Upper: 1.00
  Lesion Score E. max. Middle: 1.09
  Live Weight Day 21: 0.496
  Weight Gain Day 0-21: 0.458
  Weight Gain Day 8-21: 0.368
